From US11814364B2, “Pyridine N-oxide derivatives useful as factor XIa inhibitors” (Janssen Pharmaceutica NV, priority 2021, dated 2023) come the findings set out here.

Broadly, the IC50 is the midpoint of a concentration-inhibition curve.

Molecules are shown by their SMILES.

Sequence of human plasma kallikrein (P03952 391-638 limits assumed): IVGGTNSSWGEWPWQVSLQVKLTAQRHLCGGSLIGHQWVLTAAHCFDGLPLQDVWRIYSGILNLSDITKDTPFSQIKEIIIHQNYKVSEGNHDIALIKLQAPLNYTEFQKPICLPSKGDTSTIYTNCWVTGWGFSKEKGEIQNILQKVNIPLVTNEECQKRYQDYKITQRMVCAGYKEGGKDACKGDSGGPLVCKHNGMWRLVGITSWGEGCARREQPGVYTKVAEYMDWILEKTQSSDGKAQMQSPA
Sequence of human plasma kallikrein (P03952 20-390 partner limits assumed): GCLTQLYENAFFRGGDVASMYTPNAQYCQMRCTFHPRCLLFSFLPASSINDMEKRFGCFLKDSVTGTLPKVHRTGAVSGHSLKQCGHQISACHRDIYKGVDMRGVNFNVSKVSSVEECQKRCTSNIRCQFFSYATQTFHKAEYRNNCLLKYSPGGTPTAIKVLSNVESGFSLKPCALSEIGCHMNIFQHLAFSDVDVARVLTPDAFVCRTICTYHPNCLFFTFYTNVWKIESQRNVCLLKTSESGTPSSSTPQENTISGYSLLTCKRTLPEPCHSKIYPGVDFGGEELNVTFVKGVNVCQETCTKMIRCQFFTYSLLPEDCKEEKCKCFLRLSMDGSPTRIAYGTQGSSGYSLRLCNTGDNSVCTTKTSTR

This assay has as its target human plasma kallikrein (Homo sapiens, UniProt P03952). Nature of the assay: Kallikrein inhibition FLINT assay with quenched AMC peptide substrate Z-Gly-Pro-Arg-AMC (end point EP or kinetic KIN reads). The class given is biochemical. The settings on record: kinetic reads at 5 min intervals over 30 min; read-out: Kallikrein (KIN) IC50. An outline of the steps: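 Enzyme and compound were preincubated 30 min before adding 50 μM AMC substrate in pH 7.5 Tris/NaCl/CaCl2/BSA/CHAPS buffer. AMC release was read at 30 min endpoint or every 5 min.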
Take `Cn1cncc1-c1cnn(C(CC2CC2)c2ccc(-c3c(-n4cnnn4)ccc(Cl)c3F)c[n+]2[O-])c1` (stereo not drawn) [Example P457]: the IC50 came out at 554 nM.
The figure for `[O-][n+]1cc(-c2c(-n3cnnn3)ccc(Cl)c2F)ccc1C(Cc1ccn(C(F)F)n1)n1cc(-c2ccnc(C(F)(F)F)c2)cn1` (stereo not drawn) [Example P703] is 9.7 nM; for `COC(=O)Nc1ccc(-c2cnn(C(CC3CCC(C)CC3)c3ccc(-c4c(-n5cnnn5)ccc(Cl)c4F)c[n+]3[O-])c2)cc1` (stereo not drawn) [Example P129] it is 136 nM.
The figure for `NC(=O)c1ccc(-c2cnn(C(Cc3ccn(C(F)F)n3)c3ccc(-c4c(-n5cc(C(F)(F)F)nn5)ccc(Cl)c4F)c[n+]3[O-])c2)cc1` (single isomer, unassigned) [Example P907] is 70.4 nM; for `O=C(O)c1ccc(-c2cnn(C(CC(=O)N3CCNCC3)c3ccc(-c4cc(Cl)ccc4-n4cnnn4)c[n+]3[O-])c2)cc1` (stereo not drawn) [Example P90] it is 80 nM.
The result for `Cn1cc(-c2cnn(C(CC3CC3)c3ccc(-c4c(-n5cnnn5)ccc(Cl)c4F)c[n+]3[O-])c2)cn1` (stereo not drawn) [Example P288] reads 841 nM.
Regarding `O=C1CCCN1CC(c1ccc(-c2c(-n3cnnn3)ccc(Cl)c2F)c[n+]1[O-])n1cc(-c2ccnc(F)c2)cn1` (single isomer, unassigned) [Example P382], the IC50 amounted to 7.3 nM.
In the case of `[O-][n+]1ccc(-c2cnn(C(Cc3ccc(F)cc3)c3ccc(-c4c(C(F)F)ccc(Cl)c4F)c[n+]3[O-])c2)cc1` (single isomer, unassigned) [Example Q18], the IC50 was determined as 5.1 nM.
The figure for `[O-][n+]1cc(-c2c(-n3cnnn3)ccc(Cl)c2F)ccc1[C@@H](Cc1ccc(C(F)(F)F)nc1)n1cc(-c2cncn2C(F)F)cn1` [Example P785] is 32.9 nM; for `[O-][n+]1cc(-c2c(-n3cnnn3)ccc(Cl)c2F)ccc1C(Cn1cccn1)n1cc(-c2ccnc(C(F)(F)F)c2)cn1` (single isomer, unassigned) [Example P513] it is 5.3 nM.
The result for `Nc1ccc(-c2cnn(C(Cn3cc(F)cn3)c3ccc(-c4c(C(F)F)ccc(Cl)c4F)c[n+]3[O-])c2)c(F)n1` (single isomer, unassigned) [Example Q25] reads 17.8 nM; that for `COC(=O)Nc1ccc(-c2cnn(C(COC(C)C)c3ccc(-c4c(-n5cnnn5)ccc(Cl)c4F)c[n+]3[O-])c2)cc1` (stereo not drawn) [Example P229], 271 nM; that for `CC1CC1CC(c1ccc(-c2c(-n3cnnn3)ccc(Cl)c2F)c[n+]1[O-])n1cc(-c2ncnn2C(F)F)cn1` (stereo not drawn) [Example P767], over 100 nM.
In the case of `COC(=O)Nc1ccc(-c2cnn(C(CC3CCCCO3)c3ccc(-c4c(-n5cnnn5)ccc(Cl)c4F)c[n+]3[O-])c2)cc1` (stereo not drawn) [Example P220], the IC50 is 13.9 nM.
The figure for `O=C(O)c1ccc(-c2cnn(C(CC3CC3C(=O)N3CCC(c4ccccc4)C3)c3ccc(-c4cc(Cl)ccc4-n4cnnn4)c[n+]3[O-])c2)cc1` (single isomer, unassigned) [Example P99] is 2370 nM; for `CC(C)n1ccc(C[C@H](c2ccc(-c3c(-n4cnnn4)ccc(Cl)c3F)c[n+]2[O-])n2cc(-c3ccnc(C(F)(F)F)c3)cn2)n1` [Example P652] it is 2.2 nM.
The result for `O=C(c1ccn(CC(c2ccc(-c3c(-n4cnnn4)ccc(Cl)c3F)c[n+]2[O-])n2cc(-c3ccnc(C(F)(F)F)c3)cn2)n1)N1CCCCC1` (single isomer, unassigned) [Example P449] reads 12 nM.
The result for `[O-][n+]1cc(-c2c(-n3cnnn3)ccc(Cl)c2F)ccc1[C@@H](CC1CC1)n1cc(-c2cn(C(F)F)nn2)cn1` [Example P594] reads 247 nM; that for `COCC[C@H](c1ccc(-c2c(C(F)F)ccc(Cl)c2F)c[n+]1[O-])n1cc(-c2ccc(C(=O)O)cc2)cn1` [Example Q34], 50.5 nM.
`NC(=O)c1ccc(-c2cnn(C(Cc3ccn(C(F)F)n3)c3ccc(-c4cc(Cl)ccc4-n4cc(C(F)(F)F)nn4)c[n+]3[O-])c2)cc1F` (single isomer, unassigned) [Example P905]: the IC50 stood at 889 nM.
With `CN(CC(c1ccc(-c2c(-n3cnnn3)ccc(Cl)c2F)c[n+]1[O-])n1cc(-c2ccnc(C(F)(F)F)c2)cn1)C(=O)CCC(=O)N1CCCCC1` (single isomer, unassigned) [Example P400], the IC50 amounted to 93.8 nM.
The figure for `[O-][n+]1cc(-c2c(-n3cnnn3)ccc(Cl)c2F)ccc1C(CCOC(F)F)n1cc(-c2ccnc(C(F)(F)F)c2)cn1` (stereo not drawn) [Example P462] is 14.3 nM; for `Cn1nnc(F)c1-c1cnn([C@H](Cc2ccc(C(F)(F)F)nc2)c2ccc(-c3c(-n4cnnn4)ccc(Cl)c3F)c[n+]2[O-])c1` [Example P780] it is 17.7 nM; for `Cn1nc(C(F)(F)F)cc1-c1cnn(C(CC2CC2)c2ccc(-c3c(-n4cnnn4)ccc(Cl)c3F)c[n+]2[O-])c1` (stereo not drawn) [Example P548] it is 514 nM.
The result for `CN(CC(c1ccc(-c2c(-n3cnnn3)ccc(Cl)c2F)c[n+]1[O-])n1cc(-c2ccnc(C(F)(F)F)c2)cn1)C(=O)c1ccccc1` (single isomer, unassigned) [Example P423] reads 43.9 nM.
Consider `[O-][n+]1ccc(-c2cnn(C(Cn3cccn3)c3ccc(-c4c(-n5cnnn5)ccc(Cl)c4F)c[n+]3[O-])c2)cc1C(F)F` (single isomer, unassigned) [Example P339], for which the IC50 was 670 nM.
Take `O=C(O)c1ccc(-c2cnn(C(CCOC(F)F)c3ccc(-c4c(-n5cc(C(F)(F)F)nn5)ccc(Cl)c4F)c[n+]3[O-])c2)cc1F` (single isomer, unassigned) [Example P887]: the IC50 came out at 5.8 nM.
The figure for `O=C(Cc1cnn(CC(c2ccc(-c3c(-n4cnnn4)ccc(Cl)c3F)c[n+]2[O-])n2cc(-c3ccnc(C(F)(F)F)c3)cn2)c1)N1CCCCC1` (stereo not drawn) [Example P473] is 104 nM; for `O=C(O)c1ccc(-c2cnn(C(Cc3ccccc3)c3ccc(-c4c(OCC(F)(F)F)ccc(Cl)c4F)c[n+]3[O-])c2)cc1` (stereo not drawn) [Example Q4] it is 265 nM; for `[O-][n+]1cc(-c2c(-n3cnnn3)ccc(Cl)c2F)ccc1C(Cn1cc(F)cn1)n1cc(-c2ccnc(C3CC3)c2)cn1` (stereo not drawn) [Example P500] it is 3.7 nM.
The figure for `Cn1ccc(CC(c2ccc(-c3c(C(F)F)ccc(Cl)c3F)c[n+]2[O-])n2cc(-c3ccc(C(=O)O)cc3)cn2)n1` (stereo not drawn) [Example Q49] is 2.3 nM.
The result for `O=C(O)C1CCCN(C(=O)C2CC2CC(c2ccc(-c3c(-n4cnnn4)ccc(Cl)c3F)c[n+]2[O-])n2cc(-c3ccccc3)cn2)C1` (stereo not drawn) [Example P224] reads 591 nM; that for `Cn1nccc1-c1cnn(C(Cn2cc(F)cn2)c2ccc(-c3c(-n4cnnn4)ccc(Cl)c3F)c[n+]2[O-])c1` (stereo not drawn) [Example P503], 13.4 nM; that for `[2H]C([2H])([2H])OCCC(c1ccc(-c2c(-n3cnnn3)ccc(Cl)c2F)c[n+]1[O-])n1cc(-c2ccc(NC(=O)OC)cc2)cn1` (stereo not drawn) [Example P289], 13.8 nM.
Consider `CN(CC(c1ccc(-c2c(-n3cnnn3)ccc(Cl)c2F)c[n+]1[O-])n1cc(-c2ccncc2)cn1)C(=O)Cc1ccccc1` (stereo not drawn) [Example P299], for which the IC50 amounted to 24.9 nM.
Take `Cn1ncnc1-c1cnn([C@H](Cc2ccn(C(F)F)n2)c2ccc(-c3c(-n4cc(C(F)(F)F)nn4)ccc(Cl)c3F)c[n+]2[O-])c1` [Example P816]: the IC50 turned out to be 86.3 nM.
For `Cn1cc(CC(c2ccc(-c3c(-n4cnnn4)ccc(Cl)c3F)c[n+]2[O-])n2cc(-c3ccnc(C(F)(F)F)c3)cn2)cn1` (stereo not drawn) [Example P452], the IC50 amounted to 10.8 nM.
The figure for `[O-][n+]1cc(-c2c(-n3cc(Cl)nn3)ccc(Cl)c2F)ccc1[C@@H](Cn1cc(F)cn1)n1cc(-c2c(F)cnn2C(F)F)cn1` [Example P631] is 66.2 nM; for `[O-][n+]1cc(-c2c(-n3cnnn3)ccc(Cl)c2F)ccc1[C@@H](CC1CC1)n1cc(-c2nnco2)cn1` [Example P545] it is 943 nM; for `[O-][n+]1cc(-c2c(-n3cnnn3)ccc(Cl)c2F)ccc1C(Cc1ccc(F)cc1)n1cc(-c2c(Cl)nnn2C(F)F)cn1` (stereo not drawn) [Example P605] it is 10.7 nM.
The result for `COC(=O)Nc1ccc(-c2cnn(C(CC(C)C)c3ccc(-c4c(-n5cnnn5)ccc(Cl)c4F)c[n+]3[O-])c2)cc1` (single isomer, unassigned) [Example P181] reads 67.7 nM.
The figure for `CC(=O)N(C)CC(c1ccc(-c2c(-n3cnnn3)ccc(Cl)c2F)c[n+]1[O-])n1cc(-c2cc[n+]([O-])cc2)cn1` (stereo not drawn) [Example P351] is 131 nM; for `[O-][n+]1cc(-c2c(-n3cnnn3)ccc(Cl)c2F)ccc1C(Cn1cc(F)cn1)n1cc(-c2ccnn2C(F)F)cn1` (stereo not drawn) [Example P645] it is 893 nM.
Consider `CC1CC1CC(c1ccc(-c2c(-n3cnnn3)ccc(Cl)c2F)c[n+]1[O-])n1cc(-c2ncnn2C(F)F)cn1` (stereo not drawn) [Example P766], for which the IC50 was over 100 nM.
On to `O=C1c2ccccc2CN1CC(c1ccc(-c2cc(Cl)ccc2-n2cnnn2)c[n+]1[O-])n1cc(-c2ccncc2)cn1` (stereo not drawn) [Example P293], for which the IC50 worked out at 67.6 nM.
The result for `[O-][n+]1cc(-c2cc(Cl)ccc2-n2cnnn2)ccc1C(Cc1ccc(Cl)cc1)n1cc(-c2cc(Cl)ccc2-n2cnnn2)cn1` (stereo not drawn) [Example P152] reads 895 nM; that for `COCCC(c1ccc(-c2c(-n3cnnn3)ccc(Cl)c2F)c[n+]1[O-])n1cc(C2CCN(C(=O)OC)CC2)cn1` (stereo not drawn) [Example P166], 923 nM.
On to `Cn1ncnc1-c1cnn(C(CC2CNCCO2)c2ccc(-c3c(-n4cc(C(F)(F)F)nn4)ccc(Cl)c3F)c[n+]2[O-])c1` (stereo not drawn) [Example P934], for which the IC50 worked out at 326 nM.
`[O-][n+]1ccc(-c2cnn(C(Cn3cccn3)c3ccc(-c4c(-n5cnnn5)ccc(Cl)c4F)c[n+]3[O-])c2)cc1` (stereo not drawn) [Example P348]: the IC50 came out at 27.2 nM.
For `[O-][n+]1cc(-c2c(-n3cnnn3)ccc(Cl)c2F)ccc1C(C(O)c1ccccc1)n1cc(-c2ccnn2C(F)F)cn1` (single isomer, unassigned) [Example P713], the IC50 was found to be 29.9 nM.
The figure for `CN(CC(c1ccc(-c2c(-n3cnnn3)ccc(Cl)c2F)c[n+]1[O-])n1cc(-c2ccnc(C(F)(F)F)c2)cn1)C(=O)c1ccccc1` (single isomer, unassigned) [Example P409] is 32.3 nM.
